Test results published in ChEMBL document CHEMBL1201862, “PubChem BioAssay data set” (2004).
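48-hour exposure; five concentrations; linearly interpolated endpoints. The concentration for 50% growth inhibition is given as GI50.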 Calls of active or inactive are those of the source. Rule as the data show it: active = GI50 up to about 1.1 µM and inactive = higher.

Key:
Test in all cases: NCI tumour cell line growth inhibition, 48 h
HCT-15 = tested on: HCT-15
DLD-1 = tested on: DLD-1
RPMI-8226 = tested on: RPMI-8226
HT-29 = tested on: HT-29
SK-MEL-28 = tested on: SK-MEL-28
SN12C = tested on: SN12C
COLO 205 = tested on: COLO 205
SF-295 = tested on: SF-295
HCT-116 = tested on: HCT-116
SW-620 = tested on: SW-620
OVCAR-8 = tested on: OVCAR-8
SR = tested on: SR
SF-539 = tested on: SF-539
MOLT-4 = tested on: MOLT-4
HCC 2998 = tested on: HCC 2998
HL-60 = tested on: HL-60
EKVX = tested on: EKVX
HOP-92 = tested on: HOP-92
OVCAR-4 = tested on: OVCAR-4
M14 = tested on: M14
KM12 = tested on: KM12
UO-31 = tested on: UO-31
RXF 393 = tested on: RXF 393
TK-10 = tested on: TK-10
SF-268 = tested on: SF-268
SK-MEL-2 = tested on: SK-MEL-2
K562 = tested on: K562
OVCAR-3 = tested on: OVCAR-3
SNB-19 = tested on: SNB-19
ACHN = tested on: ACHN
XF498 = tested on: XF498
A549 = tested on: A549
NCI-H522 = tested on: NCI-H522
HOP-18 = tested on: HOP-18
NCI-H23 = tested on: NCI-H23
M19-MEL = tested on: M19-MEL
DMS-273 = tested on: DMS-273
CCRF-CEM = tested on: CCRF-CEM
RXF 631 = tested on: RXF 631
CAKI-1 = tested on: CAKI-1
786-0 = tested on: 786-0
UACC-62 = tested on: UACC-62
NCI-H460 = tested on: NCI-H460
HOP-62 = tested on: HOP-62
SNB-75 = tested on: SNB-75
LXFL 529 = tested on: LXFL 529
IGROV-1 = tested on: IGROV-1
DMS-114 = tested on: DMS-114
U-251 = tested on: U-251
Malme-3M = tested on: Malme-3M
KM-20L2 = tested on: KM-20L2
UACC-257 = tested on: UACC-257
NCI-H226 = tested on: NCI-H226

With `CCCN(CCCC(NC(C)=O)C(=O)NCc1ccccc1)C(=O)NCCCl` (stereo not drawn) the GI50 (HCT-15) was > 100 µM, the GI50 (DLD-1) was > 100 µM (inactive) and the GI50 (RPMI-8226) was > 100 µM (inactive). For the same compound, the GI50 (HT-29) was > 100 µM (inactive), the GI50 (SK-MEL-28) was > 100 µM (inactive) and the GI50 (SN12C) was > 100 µM (inactive). The GI50 (COLO 205) was > 100 µM (inactive), the GI50 (SF-295) was > 100 µM (inactive) and the GI50 (HCT-116) was > 100 µM (inactive). The GI50 (SW-620) was > 100 µM (inactive), the GI50 (OVCAR-8) was > 100 µM (inactive) and the GI50 (SR) was > 100 µM (inactive). The GI50 (SF-539) was > 100 µM (inactive), the GI50 (MOLT-4) was > 100 µM (inactive) and the GI50 (HCC 2998) was > 100 µM (inactive). For the same compound, the GI50 (HL-60) was > 100 µM (inactive), the GI50 (EKVX) was > 100 µM (inactive) and the GI50 (HOP-92) was > 100 µM (inactive). For the same compound, the GI50 (OVCAR-4) was > 100 µM (inactive), the GI50 (M14) was > 100 µM (inactive) and the GI50 (KM12) was > 100 µM (inactive). The GI50 (UO-31) was > 100 µM (inactive), the GI50 (RXF 393) was > 100 µM (inactive) and the GI50 (TK-10) was > 100 µM (inactive). The GI50 (SF-268) was > 100 µM (inactive), the GI50 (SK-MEL-2) was > 100 µM (inactive) and the GI50 (K562) was > 100 µM (inactive). For the same compound, the GI50 (OVCAR-3) was > 100 µM (inactive), the GI50 (SNB-19) was > 100 µM (inactive) and the GI50 (ACHN) was > 100 µM (inactive). For the same compound, the GI50 (XF498) was > 100 µM (inactive), the GI50 (A549) was > 100 µM (inactive) and the GI50 (NCI-H522) was > 100 µM (inactive). For the same compound, the GI50 (HOP-18) was > 100 µM (inactive), the GI50 (NCI-H23) was > 100 µM (inactive) and the GI50 (M19-MEL) was > 100 µM (inactive). For the same compound, the GI50 (DMS-273) was > 100 µM (inactive), the GI50 (CCRF-CEM) was > 100 µM (inactive) and the GI50 (RXF 631) was > 100 µM (inactive). The GI50 (CAKI-1) was > 100 µM (inactive), the GI50 (786-0) was > 100 µM (inactive) and the GI50 (UACC-62) was > 100 µM (inactive). The GI50 (NCI-H460) was > 100 µM (inactive), the GI50 (HOP-62) was > 100 µM (inactive) and the GI50 (SNB-75) was > 100 µM (inactive). For the same compound, the GI50 (LXFL 529) was > 100 µM (inactive), the GI50 (IGROV-1) was > 100 µM (inactive) and the GI50 (DMS-114) was > 100 µM (inactive). For the same compound, the GI50 (U-251) was > 100 µM (inactive), the GI50 (Malme-3M) was > 100 µM (inactive) and the GI50 (KM-20L2) was > 100 µM (inactive). For the same compound, the GI50 (UACC-257) was > 100 µM (inactive) and the GI50 (NCI-H226) was > 100 µM (inactive).
